From ChEMBL document CHEMBL1201862, “PubChem BioAssay data set” (2004)
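Where inhibition never reached the appropriate level, the endpoint shown equals the highest concentration tested. Otherwise, values were interpolated linearly from a five-concentration, 48-hour dose response in 96-well plates. At the GI50, growth is halved.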 Active and inactive are the calls of the source. Rule as the data show it: active = GI50 up to about 1.1 µM and inactive = higher.

Assays:
Test in all cases: NCI tumour cell line growth inhibition, 48 h
[1] = tested on: COLO 205
[2] = tested on: HOP-92
[3] = tested on: MDA-MB-435
[4] = tested on: NCI-H460
[5] = tested on: 786-0
[6] = tested on: A498
[7] = tested on: A549
[8] = tested on: ACHN
[9] = tested on: CCRF-CEM
[10] = tested on: DU-145
[11] = tested on: EKVX
[12] = tested on: HCC 2998
[13] = tested on: HCT-116
[14] = tested on: HCT-15
[15] = tested on: HOP-62
[16] = tested on: HT-29
[17] = tested on: IGROV-1
[18] = tested on: K562
[19] = tested on: KM12
[20] = tested on: MCF7
[21] = tested on: MDA-MB-231
[22] = tested on: MOLT-4
[23] = tested on: NCI-H226
[24] = tested on: NCI/ADR-RES
[25] = tested on: OVCAR-4
[26] = tested on: OVCAR-5
[27] = tested on: PC-3
[28] = tested on: RPMI-8226
[29] = tested on: RXF 393
[30] = tested on: SF-268
[31] = tested on: SF-295
[32] = tested on: SF-539
[33] = tested on: SK-OV-3
[34] = tested on: SN12C
[35] = tested on: SNB-75
[36] = tested on: SR
[37] = tested on: SW-620
[38] = tested on: T47D
[39] = tested on: TK-10
[40] = tested on: U-251
[41] = tested on: UO-31
[42] = tested on: CAKI-1
[43] = tested on: HL-60
[44] = tested on: LOX IMVI
[45] = tested on: M14
[46] = tested on: MDA-N
[47] = tested on: Malme-3M
[48] = tested on: NCI-H23
[49] = tested on: OVCAR-8
[50] = tested on: SK-MEL-28
[51] = tested on: SK-MEL-5
[52] = tested on: UACC-257
[53] = tested on: UACC-62
[54] = tested on: NCI-H522
[55] = tested on: OVCAR-3
[56] = tested on: SNB-19
[57] = tested on: SK-MEL-2

O=C(Nc1nccs1)c1cc2c(cc1Cl)Sc1nccn1S2(=O)=O
GI50 [1]: 16.7 µM (inactive)
GI50 [2]: 15.3 µM (inactive)
GI50 [3]: 17.2 µM (inactive)
GI50 [4]: 16 µM (inactive)

CC(=O)OC(C)c1cc2c(s1)C(=O)c1c(C(C)OC(C)=O)csc1C2=O (centres undefined)
GI50 [5]: 1.89 µM (inactive)
GI50 [6]: 2.13 µM (inactive)
GI50 [7]: 1.97 µM (inactive)
GI50 [8]: 1.42 µM (inactive)
GI50 [9]: 1.49 µM (inactive)
GI50 [1]: 1.91 µM (inactive)
GI50 [10]: 0.586 µM (active)
GI50 [11]: 1.74 µM (inactive)
GI50 [12]: 1.73 µM (inactive)
GI50 [13]: 1.66 µM (inactive)
GI50 [14]: 1.58 µM
GI50 [15]: 1.24 µM (inactive)
GI50 [2]: 3.29 µM (inactive)
GI50 [16]: 2.21 µM (inactive)
GI50 [17]: 1.68 µM (inactive)
GI50 [18]: 1.01 µM (active)
GI50 [19]: 1.25 µM (inactive)
GI50 [20]: 0.662 µM (active)
GI50 [21]: 1.55 µM (inactive)
GI50 [22]: 1.95 µM (inactive)
GI50 [23]: 1.37 µM (inactive)
GI50 [4]: 0.5 µM (active)
GI50 [24]: 1.26 µM (inactive)
GI50 [25]: 1.3 µM (inactive)
GI50 [26]: 1.97 µM (inactive)
GI50 [27]: 2.3 µM (inactive)
GI50 [28]: 1.43 µM (inactive)
GI50 [29]: 1.31 µM (inactive)
GI50 [30]: 3.01 µM (inactive)
GI50 [31]: 1.28 µM (inactive)
GI50 [32]: 1.11 µM (active)
GI50 [33]: 3.6 µM (inactive)
GI50 [34]: 0.682 µM (active)
GI50 [35]: 2.74 µM (inactive)
GI50 [36]: > 100 µM (inactive)
GI50 [37]: 0.0545 µM (active)
GI50 [38]: 1.85 µM (inactive)
GI50 [39]: 2.29 µM (inactive)
GI50 [40]: 1.18 µM (inactive)
GI50 [41]: 1.55 µM (inactive)

Cn1c(=O)c2nc(Nc3ccccc3)[nH]c2n(C)c1=O
GI50 [5]: > 10 µM (inactive)
GI50 [7]: > 10 µM (inactive)
GI50 [42]: > 10 µM (inactive)
GI50 [9]: > 10 µM (inactive)
GI50 [1]: > 10 µM (inactive)
GI50 [10]: > 10 µM (inactive)
GI50 [11]: > 10 µM (inactive)
GI50 [12]: > 10 µM (inactive)
GI50 [14]: > 10 µM
GI50 [43]: > 10 µM (inactive)
GI50 [15]: > 10 µM (inactive)
GI50 [2]: > 10 µM (inactive)
GI50 [16]: > 10 µM (inactive)
GI50 [17]: > 10 µM (inactive)
GI50 [18]: > 10 µM (inactive)
GI50 [19]: > 10 µM (inactive)
GI50 [44]: > 10 µM (inactive)
GI50 [45]: > 10 µM (inactive)
GI50 [20]: > 10 µM (inactive)
GI50 [21]: > 10 µM (inactive)
GI50 [3]: > 10 µM (inactive)
GI50 [46]: > 10 µM (inactive)
GI50 [22]: > 10 µM (inactive)
GI50 [47]: > 10 µM (inactive)
GI50 [48]: > 10 µM (inactive)
GI50 [25]: > 10 µM (inactive)
GI50 [49]: > 10 µM (inactive)
GI50 [27]: > 10 µM (inactive)
GI50 [28]: > 10 µM (inactive)
GI50 [29]: > 10 µM (inactive)
GI50 [30]: > 10 µM (inactive)
GI50 [31]: > 10 µM (inactive)
GI50 [50]: > 10 µM (inactive)
GI50 [51]: > 10 µM (inactive)
GI50 [33]: > 10 µM (inactive)
GI50 [34]: > 10 µM (inactive)
GI50 [35]: > 10 µM (inactive)
GI50 [36]: > 10 µM (inactive)
GI50 [37]: > 10 µM (inactive)
GI50 [38]: > 10 µM (inactive)
GI50 [39]: > 10 µM (inactive)
GI50 [52]: > 10 µM (inactive)
GI50 [53]: > 10 µM (inactive)

CCOC(=O)C(NC(=O)CC)(C(F)(F)F)P(=O)(OCC)OCC (centres undefined)
GI50 [6]: > 100 µM (inactive)
GI50 [8]: > 100 µM (inactive)
GI50 [9]: > 100 µM (inactive)
GI50 [10]: > 100 µM (inactive)
GI50 [11]: > 100 µM (inactive)
GI50 [12]: > 100 µM (inactive)
GI50 [13]: > 100 µM (inactive)
GI50 [14]: > 100 µM
GI50 [43]: > 100 µM (inactive)
GI50 [15]: > 100 µM (inactive)
GI50 [16]: > 100 µM (inactive)
GI50 [18]: > 100 µM (inactive)
GI50 [45]: > 100 µM (inactive)
GI50 [20]: > 100 µM (inactive)
GI50 [21]: > 100 µM (inactive)
GI50 [3]: > 100 µM (inactive)
GI50 [46]: > 100 µM (inactive)
GI50 [22]: > 100 µM (inactive)
GI50 [47]: > 100 µM (inactive)
GI50 [54]: > 100 µM (inactive)
GI50 [28]: > 100 µM (inactive)
GI50 [30]: > 100 µM (inactive)
GI50 [32]: > 100 µM (inactive)
GI50 [50]: > 100 µM (inactive)
GI50 [33]: > 100 µM (inactive)
GI50 [34]: > 100 µM (inactive)
GI50 [35]: > 100 µM (inactive)
GI50 [36]: > 100 µM (inactive)
GI50 [38]: > 100 µM (inactive)
GI50 [40]: > 100 µM (inactive)
GI50 [53]: > 100 µM (inactive)
GI50 [41]: > 100 µM (inactive)

CCC1=[N+]([O-])C(C)(C)NC1(C)C
GI50 [7]: > 10 µM (inactive)
GI50 [8]: > 10 µM (inactive)
GI50 [42]: > 10 µM (inactive)
GI50 [1]: > 10 µM (inactive)
GI50 [10]: > 10 µM (inactive)
GI50 [11]: > 10 µM (inactive)
GI50 [13]: > 10 µM (inactive)
GI50 [14]: > 10 µM
GI50 [2]: > 10 µM (inactive)
GI50 [16]: > 10 µM (inactive)
GI50 [17]: > 10 µM (inactive)
GI50 [19]: > 10 µM (inactive)
GI50 [45]: > 10 µM (inactive)
GI50 [21]: > 10 µM (inactive)
GI50 [3]: > 10 µM (inactive)
GI50 [46]: > 10 µM (inactive)
GI50 [23]: 4.95 µM (inactive)
GI50 [48]: > 10 µM (inactive)
GI50 [24]: > 10 µM (inactive)
GI50 [55]: > 10 µM (inactive)
GI50 [25]: > 10 µM (inactive)
GI50 [26]: > 10 µM (inactive)
GI50 [49]: > 10 µM (inactive)
GI50 [27]: > 10 µM (inactive)
GI50 [29]: > 10 µM (inactive)
GI50 [30]: > 10 µM (inactive)
GI50 [31]: > 10 µM (inactive)
GI50 [32]: > 10 µM (inactive)
GI50 [50]: > 10 µM (inactive)
GI50 [51]: > 10 µM (inactive)
GI50 [34]: > 10 µM (inactive)
GI50 [56]: > 10 µM (inactive)
GI50 [35]: > 10 µM (inactive)
GI50 [37]: > 10 µM (inactive)
GI50 [39]: > 10 µM (inactive)
GI50 [40]: > 10 µM (inactive)

COc1ccc(/C=C\c2cc(OC)c(OC)c(OC)c2)cc1OC(=O)C(N)CCC(=O)O (centres undefined)
GI50 [5]: 0.000792 µM (active)
GI50 [7]: 0.000944 µM (active)
GI50 [16]: 2.34 µM (inactive)
GI50 [20]: 0.00187 µM (active)
GI50 [23]: 0.00123 µM (active)

C=CCNc1nc2c(N)ncnc2s1
GI50 [5]: > 10 µM (inactive)
GI50 [7]: > 10 µM (inactive)
GI50 [8]: > 10 µM (inactive)
GI50 [42]: > 10 µM (inactive)
GI50 [9]: > 10 µM (inactive)
GI50 [1]: > 10 µM (inactive)
GI50 [43]: > 10 µM (inactive)
GI50 [15]: > 10 µM (inactive)
GI50 [2]: > 10 µM (inactive)
GI50 [17]: > 10 µM (inactive)
GI50 [18]: > 10 µM (inactive)
GI50 [45]: > 10 µM (inactive)
GI50 [20]: > 10 µM (inactive)
GI50 [3]: > 10 µM (inactive)
GI50 [22]: > 10 µM (inactive)
GI50 [47]: > 10 µM (inactive)
GI50 [48]: > 10 µM (inactive)
GI50 [4]: > 10 µM (inactive)
GI50 [24]: > 10 µM (inactive)
GI50 [25]: > 10 µM (inactive)
GI50 [26]: > 10 µM (inactive)
GI50 [28]: > 10 µM (inactive)
GI50 [29]: > 10 µM (inactive)
GI50 [30]: > 10 µM (inactive)
GI50 [50]: > 10 µM (inactive)
GI50 [57]: > 10 µM (inactive)
GI50 [51]: > 10 µM (inactive)
GI50 [33]: > 10 µM (inactive)
GI50 [35]: > 10 µM (inactive)
GI50 [36]: > 10 µM (inactive)
GI50 [37]: > 10 µM (inactive)
GI50 [38]: > 10 µM (inactive)
GI50 [40]: > 10 µM (inactive)
GI50 [53]: > 10 µM (inactive)
